Common to all, as to assay type: binding
The target in assay [1] is T1, recombinant N-terminal MLH1 (residues 15-340) (Homo sapiens, UniProt P40692).
T1 construct: recombinant N-terminal MLH1 (residues 15-340)
T1 sequence (P40692 15-340): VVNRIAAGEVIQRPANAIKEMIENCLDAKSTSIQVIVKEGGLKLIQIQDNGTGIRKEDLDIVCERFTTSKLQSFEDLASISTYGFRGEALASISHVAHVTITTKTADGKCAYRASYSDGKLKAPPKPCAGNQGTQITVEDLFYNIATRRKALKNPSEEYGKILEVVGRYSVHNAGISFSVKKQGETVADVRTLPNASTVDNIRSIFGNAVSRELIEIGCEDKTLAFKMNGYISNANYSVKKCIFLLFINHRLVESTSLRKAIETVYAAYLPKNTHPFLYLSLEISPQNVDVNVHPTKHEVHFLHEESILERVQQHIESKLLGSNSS
In words: Fluorescence Polarisation Assay for MLH1. To be noted: 100 nM N-terminal MLH1, 5 nM probe compound. In outline: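 Fluorescence polarisation displacement: 100 nM MLH1 (15-340) preincubated 30 min at room temperature with compound, then 5 nM rhodamine-labelled probe added and read immediately. Buffer 25 mM HEPES pH 7.5, 250 mM NaCl, 10 mM MgCl2, 0.01% Triton X-100, 5 mM DTT; normalised to no-inhibitor and no-enzyme controls.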
A general note: Polarisation of emitted light reports the rotation of a fluorescent probe.

Assay [2] has as its target T2, recombinant N-terminal PMS2 (residues 1-365) (Homo sapiens, UniProt P54278).
T2 construct: recombinant N-terminal PMS2 (residues 1-365)
T2 sequence (P54278 1-365): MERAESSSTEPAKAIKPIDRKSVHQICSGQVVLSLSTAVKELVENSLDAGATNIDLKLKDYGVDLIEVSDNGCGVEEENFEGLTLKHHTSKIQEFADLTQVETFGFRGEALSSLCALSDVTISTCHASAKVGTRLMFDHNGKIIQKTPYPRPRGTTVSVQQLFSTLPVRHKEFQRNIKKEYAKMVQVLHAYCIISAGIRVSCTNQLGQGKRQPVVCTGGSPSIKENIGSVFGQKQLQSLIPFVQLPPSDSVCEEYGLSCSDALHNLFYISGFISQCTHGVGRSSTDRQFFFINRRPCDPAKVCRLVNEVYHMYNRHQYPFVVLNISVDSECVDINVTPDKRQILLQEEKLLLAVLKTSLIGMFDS
In words: Fluorescence Polarisation Assay for PMS2. The following applies: 10 nM N-terminal PMS2, 5 nM probe compound. The procedure: Fluorescence Polarisation Assay for PMS2
Test compounds, as 10 mM DMSO stocks, were dispensed into a Black Fluotrac 200 384 well medium binding plate (Greiner Bio-One, item number 781076) using a Labcyte Echo acoustic liquid handler. For single point screening, test compounds were added to wells in columns 1-22 whilst DMSO was added to wells in columns 23 and 24 to normalise the plate. For potency determination, serial dilutions of test compounds were added to wells in columns 3-22 and DMSO volume was normalised across the plate. […] 20 μL assay buffer was added to all wells in columns 1 and 24 (column 24 only for single point screening) using a MultiDrop Combi (ThermoFisher). Plates were centrifuged for 1 minute at 250 xg and were incubated at room temperature for 30 minutes prior to the addition of 20 μL of 2×(20 nM) of 5-((5-(4-((2-(2,4-dihydroxy-5-isopropylbenzoyl) isoindolin-5-yl) methyl)piperazin-1-yl) pentyl)carbamoyl)-2-(6-(dimethylamino)-3-(dimethyliminio)-3H-xanthen-9-yl)benzoate (referred to hereinafter as “probe compound”) in assay buffer (prepared from a 100 μM DMSO stock) with a MultiDrop Combi (ThermoFisher). The final concentration of N-terminal PMS2 was 10 nM and the final concentration of probe compound was 5 nM. Compound plates were centrifuged for 1 minute at 250 xg for 1 minute and were incubated at room temperature for 1 hour before being read on a PheraStar FSX (fitted with 384-well aperture spoon and 540 590 590 FP optic module). The gain and focus were adjusted before each plate was read so that the polarisation of a no enzyme control (column 24) was equal to 35 mP. Data were normalised against the no inhibitor controls (column 23) and no enzyme controls (column 24).

Assay [3] addresses T3, recombinant HSP90α (full length with an N-terminal His6-tag) (Homo sapiens, UniProt P07900).
T3 construct: recombinant HSP90α (full length with an N-terminal His6-tag, BPS Bioscience); His6 (N); purchased BPS Bioscience
In words: Fluorescence Polarisation Assay for HSP90. To be noted: 30 nM HSP90α, 5 nM FITC-Geldanymycin. As for the experimental part: Fluorescence Polarisation Assay for HSP90
Test compounds, solubilised to a concentration of 10 mM in DMSO, were dispensed into a Black Fluotrac 200 384 well medium binding plates (Greiner Bio-One, item number 781076) using a Labcyte Echo acoustic liquid handler. For single point screening, test compounds were added to wells in columns 1-22 whilst for potency determination, serial dilutions of test compounds were added to wells in columns 3-22; in all cases, DMSO volume was normalised across the entire plate. All subsequent liquid handling steps were conducted using a Multidrop Combi (Thermo Scientific) or Matrix electronic pipettors (Thermo Scientific).
20 μL assay buffer was added to all wells in columns 1 and 24 (column 24 only for single point screening). Plates were centrifuged for 1 minute at 250 xg and were incubated at room temperature for 30 minutes prior to the addition of 20 μL of 2×(10 nM) of FITC-Geldanymycin in assay buffer (Abcam ab141589, prepared from a 100 μM DMSO stock). […]
Compound plates were centrifuged for 1 minute at 250 xg and were incubated at room temperature for 3 hours before being read on a PheraStar FSX (fitted with 384-well aperture spoon and 485 520 520 FP optic module). The gain and focus were adjusted before each plate was read so that the polarisation of a no enzyme control (column 24) was equal to 35 mP. […]

Each structure is given as a SMILES string.

By IC50 is commonly meant the concentration that inhibits the measured activity by half.

As for `CN1CCC(Oc2ccc3c(c2)CN(C(=O)c2c(O)cc(C(F)F)cc2OCc2ccccc2)C3)CC1` [Example 4.32, (2-(Benzyloxy)-4-(difluoromethyl)-6-hydroxyphenyl)(5-((1-methylpiperidin-4-yl)oxy)isoindolin-2-yl)methanone], the results for the IC50 in assay [1], in assay [2] and in assay [3] were below 100 nM, 1000 to 10000 nM and 1000 to 10000 nM, respectively.
Consider `CN(C)CCOc1ccc2c(c1)CCN(C(=O)c1c(O)cc(C(F)F)cc1OCc1ccccc1)C2` [Example 4.41, (2-(Benzyloxy)-4-s(difluoromethyl)-6-hydroxyphenyl)(6-(2-(dimethylamino)ethoxy)-3,4-dihydroisoquinolin-2(1H)-yl)methanone], for which the IC50 in assay [1] and in assay [2] was 100 to 1000 nM each time.
Turning to `CN1CC[C@H](Oc2ccc3c(c2)CN(C(=O)c2c(O)cc(C(F)F)cc2OCc2ccccc2)C3)C1` [Example 4.56, (S)-(2-(Benzyloxy)-4-(difluoromethyl)-6-hydroxyphenyl)(5-((1-methylpyrrolidin-3-yl)oxy)isoindolin-2-yl)methanone], the IC50 is below 100 nM in assay [1] and 1000 to 10000 nM in assay [2].
In the case of `CN1CCC(Oc2ccc3c(c2)CN(C(=O)c2c(O)cc(C(F)F)cc2OCC2CC2)C3)CC1` [Example 4.59, (2-(Cyclopropylmethoxy)-4-(difluoromethyl)-6-hydroxyphenyl)(5-((1-methylpiperidin-4-yl)oxy)isoindolin-2-yl)methanone], the 50% inhibitory concentration (IC50) is 100 to 1000 nM in assay [1] and 1000 to 10000 nM in assay [3].
Consider `CN1CCC(Oc2ccc3c(c2)CN(C(=O)c2c(O)cc(F)cc2OCc2ccccc2)C3)CC1` [Example 10.25, (2-(Benzyloxy)-4-fluoro-6-hydroxyphenyl) (5-((1-methylpiperidin-4-yl)oxy)isoindolin-2-yl) methadone], for which the figures for the IC50 in assay [1] and in assay [2] were 100 to 1000 nM and 1000 to 10000 nM, respectively.
Turning to `O=C(c1c(O)cc(C(F)F)cc1OCc1ccccc1)N1Cc2ccc(OC3CCNCC3)cc2C1` [Example 26, (2-(Benzyloxy)-4-(difluoromethyl)-6-hydroxyphenyl)(5-(piperidin-4-yloxy)isoindolin-2-yl)methanone], the IC50 in assay [1] is below 100 nM; in assay [2] it was 1000 to 10000 nM.
Regarding `O=C(c1c(O)cc(C(F)F)cc1OCC12CC(CO1)C2)N1CCc2cccc(N[C@H]3CCOC3)c2C1` [Example 28.1, (S)-(2-((2-Oxabicyclo[2.1.1]hexan-1-yl)methoxy)-4-(difluoromethyl)-6-hydroxyphenyl)(8-((tetrahydrofuran-3-yl)amino)-3,4-dihydroisoquinolin-2(1H)-yl)methanone], the IC50 in assay [1] is 1000 to 10000 nM.
Take `O=C(c1c(O)cc(C(F)F)cc1OCc1ccc2cnccc2c1)N1CCc2cccc(N[C@H]3CCOC3)c2C1` [Example 28.2, (S)-(4-(Difluoromethyl)-2-hydroxy-6-(isoquinolin-6-ylmethoxy)phenyl)(8-((tetrahydrofuran-3-yl)amino)-3,4-dihydroisoquinolin-2(1H)-yl)methanone]: in assay [1], the IC50 is below 100 nM.
The same measure, in the same setting: the figure for `O=C(c1c(O)cc(C(F)F)cc1OCc1ccc2ccncc2c1)N1CCc2cccc(N[C@H]3CCOC3)c2C1` [Example 28.3, (S)-(4-(Difluoromethyl)-2-hydroxy-6-(isoquinolin-7-ylmethoxy)phenyl)(8-((tetrahydrofuran-3-yl)amino)-3,4-dihydroisoquinolin-2(1H)-yl)methanone] is 100 to 1000 nM; for `O=C(c1c(O)cc(C(F)F)cc1OCc1nc2ccccc2[nH]1)N1CCc2cccc(N[C@H]3CCOC3)c2C1` [Example 28.4, (S)-(2-((1H-Benzo[d]imidazol-2-yl)methoxy)-4-(difluoromethyl)-6-hydroxyphenyl)(8-((tetrahydrofuran-3-yl)amino)-3,4-dihydroisoquinolin-2(1H)-yl)methanone] it is 1000 to 10000 nM.
For `CC(=O)N1CCC(Oc2ccc3c(c2)CN(C(=O)c2c(O)cc(C(F)F)cc2OCc2ccccc2)C3)CC1` [Example 29, 1-(4-((2-(2-(Benzyloxy)-4-(difluoromethyl)-6-hydroxybenzoyl)isoindolin-5-yl)oxy)piperidin-1-yl) ethan-1-one], the IC50 in assay [1] is below 100 nM.
